Assay results taken from patent US12037324B2, “Biarylmethyl heterocycles” (Université de Montréal, priority 2016, dated 2024).

Assays:
[1] = target: T1, AGTR1 (Homo sapiens, UniProt P30556); experiment: DiscoveRx β-arrestin2 recruitment assay (enzyme complementation, Pathunter CHO-K1 AGTR1 β-arrestin cell line); type: cell-based; details: DiscoveRx β-arrestin2 recruitment; for DiscoveRx β-arrestin2 Ymax (%): maximal response
T1 construct: host or cells: Pathunter CHO-K1 AGTR1 β-arrestin cell line (CHO-K1)
T1 sequence (P30556 1-359): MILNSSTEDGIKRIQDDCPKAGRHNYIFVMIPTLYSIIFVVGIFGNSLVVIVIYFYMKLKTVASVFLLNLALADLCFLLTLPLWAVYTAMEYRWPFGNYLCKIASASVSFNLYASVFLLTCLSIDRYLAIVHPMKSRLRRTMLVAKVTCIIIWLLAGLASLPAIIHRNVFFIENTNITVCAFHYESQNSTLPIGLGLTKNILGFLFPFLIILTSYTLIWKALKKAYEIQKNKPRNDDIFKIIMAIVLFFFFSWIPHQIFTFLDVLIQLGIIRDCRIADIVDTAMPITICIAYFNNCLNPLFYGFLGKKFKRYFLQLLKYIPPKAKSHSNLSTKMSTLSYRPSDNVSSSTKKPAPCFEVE
In short: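 CHO-K1 cells expressing AGTR1 with β-arrestin2 enzyme-complementation reporter, plated 14-16 h ahead in 1% serum medium, then exposed to compounds for 90 min at 37° C. Chemiluminescence read after 1 h detection. EC50 (agonist) or IC50 (antagonist) from 4-parameter logistic fit; activity as percentage of All maximal effect.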

[2] = target: T1, AGTR1; experiment: DiscoveRx IP1 accumulation assay (HTRF), agonist mode, Pathunter CHO-K1 AGTR1 β-arrestin cell line; type: cell-based; details: for EC50: read-out: IP-1 EC50
In short: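 Agonist mode in CHO-K1 AGTR1 β-arrestin cells plated 14-16 h before; compounds at varying concentrations for 90 min at 37° C, IP1 accumulation read by HTRF (D2-conjugate and anti-IP1 cryptate, 20 min room temperature). EC50 from 4-parameter logistic fit; activity given as percentage of maximal AII effect.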

[3] = target: T2, hAT1R (Homo sapiens, UniProt P30556); experiment: BRET β-arrestin2 biosensor assay, higher receptor expression (hAT1R 5 ng/well), HEK293 cells; type: cell-based; details: for EC50: High AT1R Expression
T2 sequence (P30556 1-359): T1 sequence (P30556 1-359)

[4] = target: T2, hAT1R; experiment: cell-based; details: section of the 42nd table ending at r951, example numbering restarts after the DiscoveRx section; read-out: β-arrestin2 EC50
[5] = target: T2, hAT1R; experiment: cell-based; details: agonist mode; for EC50: read-out: BRET P63 EC50

Row | SMILES | EC50 [1] | DiscoveRx β-arrestin2 Ymax (%) [1] | IP-1 Ymax (%) [2] | EC50 [2] | BRET β-Arrestin2 High AT1R Expression Ymax (%) [3] | EC50 [3] | EC50 [4] | BRET P63 Ymax [5] | EC50 [5]
1 | CCc1nc2c(C)cc(C)nc2n1Cc1ccc(-c2cc(-c3ccccc3)ccc2C(=O)O)cn1 [Example 196, 3-(6-((2-ethyl-5,7-dimethyl-3H-imidazo[4,5-b]pyridin-3-yl)methyl)pyridin-3-yl)-[1,1′-biphenyl]-4-carboxylic acid] | 3020 nM | 50.4% | 12.1% | 869 nM | 83.3% | 618 nM | 1700 nM | 7.6% | 1100 nM
2 | CCc1nc2c(C)cc(C)nc2n1Cc1ccc(-c2cc(Oc3ccccc3)ccc2-c2nnn[nH]2)cc1 [Example 204, 2-Ethyl-5,7-dimethyl-3-((5′-phenoxy-2′-(1H-tetrazol-5-yl)-[1, 1′-biphenyl]-4-yl)methyl)-3H-imidazo[4,5-b]pyridine] | 26.4 nM | 42.4% | 14.4% | 66.8 nM | 85.9% | 3.6 nM | 9.8 nM | 9.4% | 10.7 nM
3 | CCc1nc2c(C)cc(C)nc2n1Cc1ccc(-c2cc(Oc3ccccc3F)ccc2-c2nnn[nH]2)cc1 [Example 205, 2-Ethyl-3-((5′-(2-fluorophenoxy)-2′-(1H-tetrazol-5-yl)-[1,1′-biphenyl]-4-yl)methyl)-5,7-dimethyl-3H-imidazo[4,5-b]pyridine] | 31.8 nM | 42.2% | 16.7% | 70.2 nM | 92.1% | 4.8 nM | 21.3 nM | 20.2% | 18.4 nM
4 | CCc1nc2c(C)cc(C)nc2n1Cc1ccc(-c2cc(Oc3ccc(F)cc3F)ccc2-c2nnn[nH]2)cc1 [Example 208] | 20.8 nM | 44.8% | 19.9% | 106 nM | 103.1% | 6 nM | 26.4 nM | 17.4% | 13.3 nM
5 | CCc1nc2c(C)cc(C)nc2n1Cc1ccc(-c2cc(OC3CCCCC3)ccc2-c2nnn[nH]2)cc1 [Example 209, 3-((5′-(Cyclohexyloxy)-2′-(1H-tetrazol-5-yl)-[1,1′-biphenyl]-4-yl)methyl)-2-ethyl-5,7-dimethyl-3H-imidazo[4,5-b]pyridine] | 45.9 nM | 49.6% | 25.5% | 110 nM | 90.6% | 7.2 nM | 50 nM | 32.6% | 37.6 nM
6 | CCc1nc2c(C)cc(C)nc2n1Cc1ccc(-c2cc(Oc3ccccc3F)ccc2-c2noc(=O)[nH]2)cc1 [Example 214, 3-(4′-((2-Ethyl-5,7-dimethyl-3H-imidazo[4,5-b]pyridin-3-yl)methyl)-5-(2-fluorophenoxy)-[1,1′-biphenyl]-2-yl)-1,2,4-oxadiazol-5(4H)-one] | 76.1 nM | 74.1% | 50.0% | 89.6 nM | 86.5% | 4.2 nM | 15.9 nM | 43.3% | 35.6 nM
7 | CCc1nc2c(C)cc(C)nc2n1Cc1ccc(-c2cc(-n3cc(C4CC4)nn3)ccc2-c2nnn[nH]2)cc1 [Example 225, 3-((5′-(4-Cyclopropyl-1H-1,2,3-triazol-1-yl)-2′-(5H-tetrazol-5-yl)-[1,1′-biphenyl]-4-yl)methyl)-2-ethyl-5,7-dimethyl-3H-imidazo[4,5-b]pyridine] | 29 nM | 35.4% | 7.0% | 25.2 nM | 82.1% | 10.9 nM | 187 nM | 7.1% | 29.5 nM
8 | CCc1nc2c(C)cc(C)nc2n1Cc1ccc(-c2cc(-n3cc(C(C)C)nn3)ccc2-c2nnn[nH]2)cc1 [Example 227] | 32 nM | 51.6% | 9.8% | 268 nM | 87.8% | 7.4 nM | 31.4 nM | 19.9% | 30.4 nM
9 | CCCc1cn(-c2ccc(-c3nnn[nH]3)c(-c3ccc(Cn4c(CC)nc5c(C)cc(C)nc54)cc3)c2)nn1 [Example 228] | 30.4 nM | 32.1% | 13.0% | 147 nM | 93.1% | 31.9 nM | 210 nM | 11.4% | 125 nM
10 | CCc1nc2c(C)cc(C)nc2n1Cc1ccc(-c2cc(-n3cc(C4CCCC4)nn3)ccc2-c2nnn[nH]2)cc1 [Example 230] | 63.1 nM | 16.7% | 12.7% | 340 nM | 53.5% | 61.2 nM | 140 nM |  | > 100000 nM
11 | CCc1nc2c(C)cc(C)nc2n1Cc1ccc(-c2cc(-c3cn(CC)nn3)ccc2-c2nnn[nH]2)cc1 [Example 234, 2-Ethyl-3-((5′-(1-ethyl-1H-1,2,3-triazol-4-yl)-2′-(1H-tetrazol-5-yl)-[1,1′-biphenyl]-4-yl)methyl)-5,7-dimethyl-3H-imidazo[4,5-b]pyridine] | 9.2 nM | 59.9% | 18.8% | 19.3 nM | 93.3% | 3.4 nM | 12.2 nM | 37.1% | 28.2 nM
12 | CCc1nc2c(C)cc(C)nc2n1Cc1ccc(-c2cc(-c3cn(CCO)nn3)ccc2-c2nnn[nH]2)cc1 [Example 235] | 56.6 nM | 56.0% | 14.9% | 213 nM | 89.5% | 29.6 nM | 129 nM | 17.7% | 161 nM
13 | CCCn1cc(-c2ccc(-c3nnn[nH]3)c(-c3ccc(Cn4c(CC)nc5c(C)cc(C)nc54)cc3)c2)nn1 [Example 236] | 12.5 nM | 60.8% | 19.2% | 48.2 nM | 93.3% | 3.6 nM | 17.3 nM | 36.2% | 34.6 nM
14 | CCc1nc2c(C)cc(C)nc2n1Cc1ccc(-c2cc(-c3cn(CC4CC4)nn3)ccc2-c2nnn[nH]2)cc1 [Example 237] | 55.3 nM | 62.3% | 13.7% | 79.7 nM | 84.4% | 16.3 nM | 112 nM | 21.1% | 60.5 nM
15 | CCc1nc2c(C)cc(C)nc2n1Cc1ccc(-c2cc(-c3ccccc3)ccc2-c2nsc(=O)[nH]2)cc1 [Example 245] | 115 nM | 75.5% | 12.7% | 89.4 nM | 88.8% | 4.9 nM | 24.1 nM | 23.3% | 27.2 nM
16 | CCc1nc2c(C)cc(C)nc2n1Cc1ccc(-c2cc(Oc3ccccn3)ccc2-c2nnn[nH]2)cc1 [Example 247, 2-Ethyl-5,7-dimethyl-3-((5′-(pyridin-2-yloxy)-2′-(1H-tetrazol-5-yl)-[1,1′-biphenyl]-4-yl)methyl)-3H-imidazo[4,5-b]pyridine] | 6.9 nM | 30.8% |  | > 100000 nM | 74.4% | 13.8 nM | 22.7 nM |  | > 10000 nM
17 | CCc1nc2c(C)cc(C)nc2n1Cc1ccc(-c2cc(Oc3cc(C)ccn3)ccc2-c2nn[nH]n2)cc1 [Example 250] | 23 nM | 43.9% | 28.9% | 50.5 nM | 79.8% | 3.8 nM | 11 nM | 14.1% | 9.3 nM
18 | CCc1nc2c(C)cc(C)nc2n1Cc1ccc(-c2cc(Oc3cc(Cl)ccn3)ccc2-c2nn[nH]n2)cc1 [Example 251] | 33.6 nM | 20.2% | 10.9% | 182 nM | 57.2% | 10.6 nM | 8.2 nM | 6.7% | 11.1 nM
